This is an account of results in US10165778B2, “Method for controlling pests in soybean” (BASF SE, priority 2014, dated 2019).

Common to all, as to assay type: in vivo
The subject of data set [1] is Green Soldier Stink Bug (Nezara viridula). The data set is described as follows: B.8 lima bean seed treatment, 2nd instar nymphs. The note with it: 0.063 mg ai/seed, infested ten days after treatment, read four days after infestation. The protocol:
B.8 Green Soldier Stink Bug (Nezara viridula)
Pots (25.8 cm^2) were filled with a 1:1 mixture of sifted (No. 10 sieve) North Carolina loamy sand soil and play sand. Technical material was dissolved in DMSO in a 20 ml scintillation vial. A total application volume of 25 μl of solution was added to a 20 ml vial, ten lima bean seeds (P. lunatus) were added, and the vial was vortexed for 1 minute. Seeds were allowed to dry and planted at a depth of 2 cm later the same day. One seed was planted per pot. Pots were held in the greenhouse and watered daily until infestation.
Ten days after treatment, plants were infested with five 2nd instar nymphs. Plants were covered with organza fabric bags to prevent escape. Plants were held in an environmental chamber (25±2° C., 24 L) and watered as needed.
Four days after infestation, the number of live nymphs on each plant was recorded, and means were calculated for each treatment. The percent control was calculated as the percent mortality relative to the solvent blank.

For data set [2], the system named is Brown Stink Bug (Euschistus heros). In words: B.6 sprayed soybean seedlings (Intacta and BMX-Potencia), adults. The note with it: for mortality (%) 1 D.A.A / mortality (%) 2 DAA / mortality (%) 6 DAA / mortality (Abbott %) 1 D.A.A / mortality (Abbott %) 2 DAA / mortality (Abbott %) 6 DAA / mortality at 10 ppm: Ginkgolide A 100 ppm a.i, Bilobalide 10 ppm a.i; for efficacy on soybean plants with Bacillus thuringiensis toxin trait (INTACTA) versus without (BMX-POTENCIA): comparison of INTACTA with BMX-POTENCIA; for mortality at 10 ppm: Euschistus heros. On the procedure: B.6 Brown Stink Bug (Euschistus heros)
(§1) The active compound is dissolved at the desired concentration in a mixture of 1:1 (vol:vol) distilled water:acetone.
Soybean seedlings of Intacta and BMX-Potencia with one pair of true leaves were sprayed with 2 ml solution using an airbrush. After dry, the plants in small pots were placed inside a transparent plastic cage and infested with 10 adults adult stage individuals. Treated cups were kept at about 25° C. Percent mortality was recorded after 1, 2, and 6 days after application.
• Corrected mortality according to Abbott, W. S., A method of computing the effectiveness of an insecticide, J. Econ. Entomal., 18 (1925) 265-267.

Data set [3] has the same test system. In words: B.3 bean pod spray test, adults. Particulars: 120 h, read-out: mortality in comparison with untreated controls. The protocol:
B.3 Brown Stink Bug (Euschistus heros)
as §1
Fresh bean pods were placed in a transparent plastic cup and inoculated with ten adult stage individuals. Insects, food and inside of container are sprayed with 1 ml solution using an air brush. Treated cups were kept at about 25° C. Percent mortality was recorded after 5 days.

Data set [4] relates to Green Soldier Stink Bug (Nezara viridula). In words: B.1 soybean pod spray test, 3rd instar nymphs. The note with it: 120 h, read-out: mortality in comparison with untreated controls. The protocol: B.1 Green Soldier Stink Bug (Nezara viridula)
The active compound is dissolved at the desired concentration in a mixture of 1:1 (vol:vol) distilled water:acetone. Surfactant (Kinetic HV) is added at a rate of 0.01% (vol/vol). The test solution is prepared at the day of use.
Soybean pods were placed in microwavable plastic cups lined with moist filter paper and inoculated with ten 3rd instar N. viridula. Using a hand atomizer, approximately 2 ml solution is sprayed into each cup. Treated cups were kept at about 28-29° C. and relative humidity of about 50-60%. Percent mortality was recorded after 5 days.

Data set [5] concerns Rice Leaf Bug (Trigonotylus caelestialium). The data set is described as follows: B.5 sprayed wheat seedling test, 2nd and 3rd stage nymphs. The note with it: 120 h, read-out: mortality in comparison with untreated controls. On the procedure:
B.5 Rice Leaf Bug (Trigonotylus caelestialium)
as §1
Small wheat seedlings in glass tubes were sprayed with 200 microliter/tube by air brush. After drying, ten 2nd and 3rd nymph stage individuals were released in the tube and the tube closed with a screened lid. Treated cups were kept at about 20° C. Percent mortality was recorded after 5 days.

Data set [6] deals with Green Soldier Stink Bug (Nezara viridula). In words: B.7 soil drench on lima bean plants, 2nd instar nymphs. Particulars: read-out: mortality in comparison with untreated controls. The protocol:
B.7 Green Soldier Stink Bug (Nezara viridula)
Lima Bean (Phaseolus lunatus, ‘Henderson Bush,’ Lot #—VR06650) plants were transplanted at the two true-leaf stage into 25.8 cm^2 pots filled with sifted (No. 10 sieve) North Carolina loamy sand soil. Pots were held in the greenhouse and watered daily until treatment. Three days after transplant, the compounds were dissolved in acetone and then diluted with water for a final concentration of 50% acetone. Treatments were applied as a drench in 1 ml solution per plant. Plants were held in an environmental chamber (25±2° C., 24 L) and watered as needed for the duration of the test.
Three days after treatment, plants were infested with five 2nd instar nymphs. Plants were covered with organza fabric bags to prevent escape. Four days after infestation, the number of live nymphs on each plant was recorded, and means were calculated for each treatment. The percent control was calculated as the percent mortality relative to the solvent blank.

The test system of data set [7] is Forest Shield Bug (Eysarcoris aeneus). In words: B.4 peanut and soybean seed spray test, adults. The note with it: 120 h, read-out: mortality in comparison with untreated controls. On the procedure:
B.4 Forest Shield Bug (Eysarcoris aeneus)
as §1
Row peanuts and soybean seeds were placed in a plastic cup and inoculated with ten adult stage individuals. Insects, food and inside of container are sprayed with 1 ml solution using an air brush. After drying, a water supply source will be placed in the cup and the cup closed with a screened lid. Treated cups were kept at about 20° C. Percent mortality was recorded after 5 days.

The test system of data set [8] is Orchid Thrips (Dichromothrips corbetti). In words: B.2 floral-immersion test on orchid petals, adult thrips. The note with it: 72 h, read-out: mortality in comparison with untreated controls. The protocol: B.2 Orchid Thrips (Dichromothrips corbetti)
Dichromothrips corbetti adults used for bioassay were obtained from a colony maintained continuously under laboratory conditions. For testing purposes, the test compound is diluted in a 1:1 mixture of acetone:water (vol:vol), plus Kinetic HV at a rate of 0.01% v/v.
Thrips potency of each compound was evaluated by using a floral-immersion technique. All petals of individual, intact orchid flowers were dipped into treatment solution and allowed to dry in Petri dishes. Treated petals were placed into individual re-sealable plastic along with about 20 adult thrips. All test arenas were held under continuous light and a temperature of about 28° C. for duration of the assay. After 3 days, the numbers of live thrips were counted on each petal. The percent mortality was recorded 72 hours after treatment.

Where two headings read alike, the source gives them in different places. A value given as a limit tells only on which side of the number the result lay.

For `C[C@@H]1C(=O)O[C@H]2C[C@@]34[C@H]5C[C@@H](C(C)(C)C)[C@]36[C@@H](OC(=O)[C@@H]6O)O[C@@]4(C(=O)O5)[C@]21O` [Ginkgolide A], the “mortality in comparison with untreated controls” value in data set [1] was “at least 75%”. In addition, the “mortality (%) 1 D.A.A” value in data set [2] (BMX - POTENCIA soybean, 1 day after application) is 10.0%; in data set [2] (INTACTA soybean, 1 day after application) it was 12.5%. Besides, the “mortality (%) 2 DAA” value worked out at 10.0% in data set [2] (BMX - POTENCIA soybean, 2 days after application) and 20.0% in data set [2] (INTACTA soybean, 2 days after application). Also, the “mortality (%) 6 DAA” value in data set [2] (BMX - POTENCIA soybean, 6 days after application) came to 57.5%; in data set [2] (INTACTA soybean, 6 days after application), 62.5%. Besides, the “mortality (Abbott %) 1 D.A.A” value in data set [2] (BMX - POTENCIA soybean, corrected according to Abbott, 1 day after application) is 7.7%; in data set [2] (INTACTA soybean, corrected according to Abbott, 1 day after application), 7.9%. Besides, the “mortality (Abbott %) 2 DAA” value in data set [2] (BMX - POTENCIA soybean, corrected according to Abbott, 2 days after application) was 5.3%; in data set [2] (INTACTA soybean, corrected according to Abbott, 2 days after application), 15.8%. The “mortality (Abbott %) 6 DAA” value was determined as 46.9% in data set [2] (BMX - POTENCIA soybean, corrected according to Abbott, 6 days after application) and 53.1% in data set [2] (INTACTA soybean, corrected according to Abbott, 6 days after application). Also, the “efficacy on soybean plants with Bacillus thuringiensis toxin trait (INTACTA) versus without (BMX-POTENCIA)” value in data set [2] is recorded as “higher efficacy”.
As a reminder, the mortality is the share of the test organisms that died. On to `CC(C)(C)[C@]1(O)C[C@@H]2OC(=O)C[C@@]23C(=O)O[C@@H]2OC(=O)[C@H](O)[C@]213` [Bilobalide, (3aS,5aR,8aS,9R,10aR)-9-tert-butyl-8,9-dihydroxydihydro-9H-furo[2,3-b]furo[3′,2′;2,3]cyclopenta[1,2-c]furan-2,4,7(3H,8H)-trione], for which the mortality at 100 ppm in data set [3], in data set [4], in data set [5] and in data set [7] was ≥ 75% each time. Also, the mortality at 10 ppm is ≥ 75% in data set [4]; 5% in data set [2] (24 h, read-out: mortality (%) 1 D.A.A, BMX - POTENCIA soybean, 1 day after application); 7.5% in data set [2] (24 h, read-out: mortality (%) 1 D.A.A, INTACTA soybean, 1 day after application); 2.6% in data set [2] (24 h, read-out: mortality (Abbott %) 1 D.A.A, BMX - POTENCIA soybean, corrected according to Abbott, 1 day after application); 2.6% in data set [2] (24 h, read-out: mortality (Abbott %) 1 D.A.A, INTACTA soybean, corrected according to Abbott, 1 day after application); 7.5% in data set [2] (48 h, read-out: mortality (%) 2 DAA, BMX - POTENCIA soybean, 2 days after application). The mortality at 10 ppm came to 20% in data set [2] (48 h, read-out: mortality (%) 2 DAA, INTACTA soybean, 2 days after application); 2.6% in data set [2] (48 h, read-out: mortality (Abbott %) 2 DAA, BMX - POTENCIA soybean, corrected according to Abbott, 2 days after application); 15.8% in data set [2] (48 h, read-out: mortality (Abbott %) 2 DAA, INTACTA soybean, corrected according to Abbott, 2 days after application); 60% in data set [2] (144 h, read-out: mortality (%) 6 DAA, BMX - POTENCIA soybean, 6 days after application); 72.5% in data set [2] (144 h, read-out: mortality (%) 6 DAA, INTACTA soybean, 6 days after application); 50% in data set [2] (144 h, read-out: mortality (Abbott %) 6 DAA, BMX - POTENCIA soybean, corrected according to Abbott, 6 days after application). Moreover, the mortality at 10 ppm in data set [2] (144 h, read-out: mortality (Abbott %) 6 DAA, INTACTA soybean, corrected according to Abbott, 6 days after application) was determined as 65.6%. The mortality at 300 ppm in data set [4] was ≥ 75%. Besides, the mortality at 500 ppm in data set [4] and in data set [8] was ≥ 75% each time. Also, the mortality at 300 g/ha in data set [6] is ≥ 75%. Besides, the “efficacy on soybean plants with Bacillus thuringiensis toxin trait (INTACTA) versus without (BMX-POTENCIA)” value in data set [2] was “higher efficacy”.
